How the values were obtained:
IL-1β = assay: Inhibition of IL-1β secretion in LPS stimulated peripheral blood mononuclear cells; type: cell-based; settings: PBMC; LPS stimulated human peripheral blood mononuclear cells, 18 hours, ELISA; read-out: The median inhibition concentration (IC50, nM) of IL-1β
Description: (§1) To study the effect of compounds of the present invention in vitro, the inhibition of IL-1β and TNF-α secretion was determined using the following procedure:
(§2) Cytokine production was measured in the media from lipopolysaccharide (LPS) stimulated peripheral blood mononuclear cells. The mononuclear cells were isolated from human peripheral blood by Lymphoprep® (Nycomed, Norway) fractionation and suspended in RPMI 1640 (growth medium) with foetal calf serum (FCS, 2%), at a concentration of 5×10^5 cells/ml. The cells were incubated in 24-well tissue culture plates in 1 ml aliquots. Test compounds were dissolved in dimethylsulfoxide (DMSO, 10 mM) and were diluted with the medium. Compounds were added to the cells for 30 minutes, then LPS ([…] final concentration) was added. The plates were incubated for 18 hours, and the concentration of IL-β and TNF-α in the medium was determined by enzyme-linked immunosorbent assays. The median inhibitory concentrations (IC50) of the compounds were calculated.

TNF-α = assay: Inhibition of TNF-α secretion in LPS stimulated peripheral blood mononuclear cells; type: cell-based; settings: PBMC; LPS stimulated human peripheral blood mononuclear cells, 18 hours, ELISA; read-out: The median inhibition concentration (IC50, nM) of TNF-α
Description: as §1, §2

Compound	IC50 (IL-1β)	IC50 (TNF-α)
COc1ccc(C(=O)NCC(O)CO)cc1C(=O)c1ccc(Nc2ccc(F)cc2F)cc1Cl (centres unmarked) [Compound 143, 3-[2-Chloro-4-(2,4-difluoro-phenylamino)-benzoyl]-N-(2,3-dihydroxy-propyl)-4-methoxy-benzamide]	2.5 nM	1.6 nM
Cc1ccc(C(=O)NCC(=O)NCCC(N)=O)cc1C(=O)c1ccc(Nc2ccc(F)cc2F)cc1Cl [Compound 168, N-[(2-Carbamoyl-ethylcarbamoyl)-methyl]-3-[2-chloro-4-(2,4-difluoro-phenylamino)-benzoyl]-4-methyl-benzamide]	2.5 nM	2.5 nM
COc1ccc(C(=O)NCCF)cc1C(=O)c1ccc(Nc2ccccc2)cc1Cl [Compound 201, 3-(2-Chloro-4-phenylamino-benzoyl)-N-(2-fluoro-ethyl)-4-methoxy-benzamide]	7.9 nM	3.2 nM
Cc1ccc(NC(=O)c2ccccc2O)cc1C(=O)c1ccc(Nc2ccc(F)cc2F)cc1Cl [Compound 247, N-{3-[2-Chloro-4-(2,4-difluoro-phenylamino)-benzoyl]-4-methyl-phenyl}-2-hydroxy-benzamide]	5.6 nM	1.4 nM
Cc1ccc(C(=O)NCCO)cc1C(=O)c1ccc(Nc2ccc(F)cc2)cc1Cl [Compound 190, 3-[2-Chloro-4-(4-fluoro-phenylamino)-benzoyl]-N-(2-hydroxy-ethyl)-4-methyl-benzamide]	0.6 nM	0.3 nM
Cc1ccc(-c2cccc(CO)c2)cc1C(=O)c1ccc(Nc2ccc(F)cc2F)cc1Cl [Compound 282, [2-Chloro-4-(2,4-difluoro-phenylamino)-phenyl]-(3′-hydroxymethyl-4-methyl-biphenyl-3-yl)-methanone]	5.6 nM	0.6 nM
Cc1cc(F)ccc1Nc1ccc(C(=O)c2cc(C(=O)NCCO)ccc2C)c(Cl)c1 [Compound 119, 3-[2-Chloro-4-(4-fluoro-2-methylphenylamino)benzoyl]-N-(2-hydroxyethyl)-4-methylbenzamide]	1.3 nM	0.4 nM
COc1ccc(CO)cc1C(=O)c1ccc(Nc2ccc(F)cc2F)cc1Cl [Compound 335, [2-Chloro-4-(2,4-difluoro-phenylamino)-phenyl]-(5-hydroxymethyl-2-methoxy-phenyl)-methanone]	2.7 nM	2.5 nM
Cc1ccc(C(=O)NCCO)cc1C(=O)c1ccc(Nc2ccccc2)cc1Cl [Compound 191, 3-(2-Chloro-4-phenylamino-benzoyl)-N-(2-hydroxy-ethyl)-4-methyl-benzamide]	1.1 nM	0.5 nM
COc1ccc(COC(C)=O)cc1C(=O)c1ccc(Nc2ccc(F)cc2F)cc1Cl [Compound 336, Acetic acid 3-[2-chloro-4-(2,4-difluoro-phenylamino)-benzoyl]-4-methoxy-benzyl ester]	5 nM	2 nM
CC(=O)Nc1cccc(-c2ccc(C)c(C(=O)c3ccc(Nc4ccc(F)cc4F)cc3Cl)c2)c1 [Compound 285, N-{3′-[2-Chloro-4-(2,4-difluoro-phenylamino)-benzoyl]-4′-methyl-biphenyl-3-yl}-acetamide]	1.4 nM	0.6 nM
COc1ccc(C(=O)NCCO)cc1C(=O)c1ccc(Nc2ccc(F)cc2)cc1Cl [Compound 194, 3-[2-Chloro-4-(4-fluoro-phenylamino)-benzoyl]-N-(2-hydroxy-ethyl)-4-methoxy-benzamide]	0.6 nM	0.3 nM
Cc1ccc(C(=O)NCCCO)cc1C(=O)c1ccc(Nc2ccccc2N)cc1Cl [Compound 118, 3-[4-(2-Aminophenylamino)-2-chlorobenzoyl]-N-(3-hydroxypropyl)-4-methylbenzamide]	2.2 nM	2 nM
CNC(=O)c1ccc(C)c(C(=O)c2ccc(Nc3ccc(Cl)cc3F)cc2Cl)c1 [Compound 121, 3-[2-Chloro-4-(4-chloro-2-fluoro-phenylamino)-benzoyl]-4,N-dimethyl-benzamide]	2.8 nM	0.6 nM
Cc1ccc(C(=O)N[C@H]2CC[C@H](O)CC2)cc1C(=O)c1ccc(Nc2ccc(Cl)cc2F)cc1Cl [Compound 136, 3-[2-Chloro-4-(4-chloro-2-fluoro-phenylamino)-benzoyl]-N-trans-(4-hydroxy-cyclohexyl)-4-methyl-benzamide]	4 nM	2 nM
COC(=O)CCC(=O)CNC(=O)c1ccc(C)c(C(=O)c2ccc(Nc3ccc(F)cc3F)cc2Cl)c1 [Compound 167, 5-{3-[2-chloro-4-(2,4-difluoro-phenylamino)-benzoyl]-4-methyl-benzoylamino}-4-oxo-pentanoic acid methyl ester]	1.7 nM	2 nM
Cc1ccccc1C(=O)c1ccc(Nc2cccc(F)c2C)cc1Cl [Ref. comp. f, 2-Chloro-4-(3-fluoro-2-methyl-phenylamino)-2′-methylbenzophenone, reference compound]	13 nM	4 nM
COc1ccc(C(=O)NCC(N)=O)cc1C(=O)c1ccc(Nc2ccccc2)cc1Cl [Compound 203, N-Carbamoylmethyl-3-(2-chloro-4-phenylamino-benzoyl)-4-methoxy-benzamide]	6.3 nM	3.2 nM
Cc1ccc(NC(=O)OCc2ccccc2)cc1C(=O)c1ccc(Nc2ccc(F)cc2F)cc1Cl [Compound 277, {3-[2-Chloro-4-(2,4-difluoro-phenylamino)-benzoyl]-4-methyl-phenyl}-carbamic acid benzyl ester]	2.5 nM	0.8 nM
CCOC(=O)CNC(=O)CNC(=O)c1ccc(OC)c(C(=O)c2ccc(Nc3c(F)cccc3F)cc2Cl)c1 [Compound 183, (2-{3-[2-Chloro-4-(2,6-difluoro-phenylamino)-benzoyl]-4-methoxy-benzoylamino}-acetylamino)-acetic acid ethyl ester]	2 nM	0.7 nM
Cc1ccc(C(=O)N[C@H]2CC[C@@H](O)CC2)cc1C(=O)c1ccc(Nc2ccc(Cl)cc2F)cc1Cl [Compound 135, 3-[2-Chloro-4-(4-chloro-2-fluoro-phenylamino)-benzoyl]-N-cis-(4-hydroxy-cyclohexyl)-4-methyl-benzamide]	4 nM	2 nM
COc1ccc(C(=O)NC(C)(CO)CO)cc1C(=O)c1ccc(Nc2c(F)cccc2F)cc1Cl [Compound 180, 3-[2-Chloro-4-(2,6-difluoro-phenylamino)-benzoyl]-N-(2-hydroxy-1-hydroxymethyl-1-methyl-ethyl)-4-methoxy-benzamide]	2.5 nM	3.2 nM

Results, then the molecule that gave them:

IC50 (IL-1β)	IC50 (TNF-α)	Compound
1.1 nM	0.3 nM	COCCC(=O)Nc1ccc(C)c(C(=O)c2ccc(Nc3ccc(F)cc3F)cc2Cl)c1 [Compound 241, N-{3-[2-Chloro-4-(2,4-difluoro-phenylamino)-benzoyl]-4-methyl-phenyl}-3-methoxy-propionamide]
1 nM	0.4 nM	CCCCNC(=O)Nc1ccc(C)c(C(=O)c2ccc(Nc3ccc(F)cc3F)cc2Cl)c1 [Compound 271, 1-Butyl-3-{3-[2-chloro-4-(2,4-difluoro-phenylamino)-benzoyl]-4-methyl-phenyl}-urea]
1 nM	0.3 nM	CCOC(=O)CCNC(=O)Nc1ccc(C)c(C(=O)c2ccc(Nc3ccc(F)cc3F)cc2Cl)c1 [Compound 265, 3-(3-{3-[2-Chloro-4-(2,4-difluoro-phenylamino)-benzoyl]-4-methyl-phenyl}-ureido)-propionic acid ethyl ester]
3.5 nM	0.9 nM	Cc1ccc(NC(=O)CCO)cc1C(=O)c1ccc(Nc2ccc(F)cc2F)cc1Cl [Compound 245, N-{3-[2-Chloro-4-(2,4-difluoro-phenylamino)-benzoyl]-4-methyl-phenyl}-3-hydroxy-propionamide]
7.9 nM	1.3 nM	Cc1ccc(C(=O)NCCCCO)cc1C(=O)c1ccc(Nc2ccc(F)cc2F)cc1Cl [Compound 159, 3-[2-Chloro-4-(2,4-difluoro-phenylamino)-benzoyl]-N-(4-hydroxy-butyl)-4-methyl-benzamide]
0.6 nM	0.2 nM	CCOC(=O)CNC(=O)c1ccc(C)c(C(=O)c2ccc(Nc3ccc(F)cc3F)cc2Cl)c1 [Compound 158, {3-[2-Chloro-4-(2,4-difluoro-phenylamino)-benzoyl]-4-methyl-benzoylamino}-acetic acid ethyl ester]
2.8 nM	1.3 nM	COCCOCC(=O)Nc1ccc(C)c(C(=O)c2ccc(Nc3ccc(F)cc3F)cc2Cl)c1 [Compound 243, N-{3-[2-Chloro-4-(2,4-difluoro-phenylamino)-benzoyl]-4-methyl-phenyl}-2-(2-methoxy-ethoxy)-acetamide]
3.2 nM	1.4 nM	Cc1ccc(NC(=O)NCCc2ccccc2)cc1C(=O)c1ccc(Nc2ccc(F)cc2F)cc1Cl [Compound 272, 1-{3-[2-Chloro-4-(2,4-difluoro-phenylamino)-benzoyl]-4-methyl-phenyl}-3-phenethyl-urea]
0.6 nM	0.6 nM	Cc1ccc(NC(=O)CCS(C)(=O)=O)cc1C(=O)c1ccc(Nc2ccc(F)cc2F)cc1Cl [Compound 252, N-{3-[2-Chloro-4-(2,4-difluoro-phenylamino)-benzoyl]-4-methyl-phenyl}-3-methanesulfonyl-propionamide]
